The subject of series [1] is Priestia megaterium. In words: Antimicrobial activity against Bacillus megaterium after 18 hrs by broth microdilution method. Type of series: functional, organism-based.
Series [2] is described as follows: Toxicity in sheep erythrocytes assessed as hemolysis at up to 100 uM after 20 mins. In kind it is cell-based, Ovis aries. Conditions: erythrocyte.
The subject of series [3] is Priestia megaterium. Description: Antimicrobial activity against Bacillus megaterium at 1 mM after 24 hrs by agar diffusion method. Type of series: functional, organism-based.
The test system of series [4] is Priestia megaterium. Description: Antimicrobial activity against Bacillus megaterium at > 50 uM by broth microdilution method. Type of series: functional, organism-based.
The nature of series [5]: Toxicity in sheep erythrocytes assessed as hemolysis at up to 1000 uM after 20 mins. Type of series: cell-based, Ovis aries. Conditions: erythrocyte.
The nature of series [6]: Solubility of the compound in 33 % acetonitrile-water. In kind it is physicochemical. As to conditions: buffer.

Molecules are shown by their SMILES. The source made the active and inactive calls. The calls are words filed in the database; no cut-off is given here.

Take `C[C@H]1NC(=O)[C@H](CC(C)(C)C)NC(=O)[C@@H](C)NC(=O)[C@H](CC(C)(C)C)NC(=O)[C@@H](CCCCN)NC(=O)[C@H](CC(C)(C)C)NC(=O)[C@@H](C)NC(=O)[C@H](CC(C)(C)C)NC1=O`: the outcome with Priestia megaterium [1] and in the series on Priestia megaterium [3] was Active. Also, the Activity entry in series [2] is “Non-toxic”.
In the case of `C[C@@H]1NC(=O)[C@@H](CC(C)(C)C)NC(=O)[C@H](C)NC(=O)[C@@H](CC(C)(C)C)NC(=O)[C@@H](CCCCN)NC(=O)[C@@H](CC(C)(C)C)NC(=O)[C@H](C)NC(=O)[C@@H](CC(C)(C)C)NC1=O`, the result in the series on Priestia megaterium [4] was Active. Also, the outcome in the series with Priestia megaterium [1] and in the series on Priestia megaterium [3] was inactive. Further, in series [5], the Activity result is “Non-toxic”.
As to `C[C@@H]1NC(=O)[C@@H](CC(C)(C)C)NC(=O)[C@H](C)NC(=O)[C@@H](CC(C)(C)C)NC(=O)[C@H](CCCCN)NC(=O)[C@@H](CC(C)(C)C)NC(=O)[C@H](C)NC(=O)[C@@H](CC(C)(C)C)NC1=O`, the result in the series on Priestia megaterium [1] and in the series on Priestia megaterium [3] was Active. Further, the Activity entry in series [2] is given as “Non-toxic”.
Regarding `CC(C)(C)C[C@@H]1NC(=O)[C@@H](CCC(N)=O)NC(=O)[C@H](CC(C)(C)C)NC(=O)[C@@H](CCC(N)=O)NC(=O)[C@H](CC(C)(C)C)NC(=O)[C@@H](CCC(=O)O)NC(=O)[C@H](CC(C)(C)C)NC(=O)[C@@H](CCC(N)=O)NC1=O`, the solubility result in series [6] was “soluble”.
Same read-out and setting: to `CC(C)(C)C[C@H]1NC(=O)[C@H](CCC(N)=O)NC(=O)[C@@H](CC(C)(C)C)NC(=O)[C@H](CCC(N)=O)NC(=O)[C@@H](CC(C)(C)C)NC(=O)[C@H](CCC(=O)O)NC(=O)[C@@H](CC(C)(C)C)NC(=O)[C@H](CCC(N)=O)NC1=O` belongs “soluble”.
With `C[C@H]1NC(=O)[C@H](CC(C)(C)C)NC(=O)[C@@H](C)NC(=O)[C@H](CC(C)(C)C)NC(=O)[C@@H](C)NC(=O)[C@H](CC(C)(C)C)NC(=O)[C@H](CCCCN)NC(=O)[C@H](CC(C)(C)C)NC1=O`, the outcome with Priestia megaterium [4] was Active. Moreover, the outcome in the series with Priestia megaterium [1] and with Priestia megaterium [3] was inactive. For the same compound, the Activity result in series [5] was “Non-toxic”.

Values taken from ChEMBL document CHEMBL1821650, “Pharmacodynamic synergy strictly dependent on the co-operative aggregation of enantiomers of cyclic peptides in the bacterial cell membrane” (Bioorg Med Chem Lett, 2011).
